Each block holds one compound with its values, some of them ahead of it.
Test system: Hs578T complex spheroid growth, percent test/control
Assay: Anticancer human tumor Hs578T cell line growth inhibition [AhR];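 further: luminescent viability signal as a proxy for spheroid growth; spheroids exposed to agents for one week after three days of growth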
Details: for IC50: curve of first compound; for viability, T/C: stronger effect = lower value
Method in brief: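 Agents were dosed in half-log steps down from roughly clinical Cmax, or from 10 microM where Cmax was unknown, alone and with AhR antagonists. Read-out: percent test/control growth of tumor spheroids containing HUVEC and MSC stromal cells.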

[1] = second compound 0.1 µM, first compound 0.0316 µM
[2] = second compound 0.1 µM, first compound 0.1 µM
[3] = second compound 0.1 µM, first compound 0.316 µM
[4] = second compound 0.1 µM, first compound 1 µM
[5] = second compound 0.1 µM, first compound 3.16 µM
[6] = second compound 0.1 µM, first compound 10 µM
[7] = second compound 0.316 µM, first compound 0.0316 µM
[8] = second compound 0.316 µM, first compound 0.1 µM
[9] = second compound 0.316 µM, first compound 0.316 µM
[10] = second compound 0.316 µM, first compound 1 µM
[11] = second compound 0.316 µM, first compound 3.16 µM
[12] = second compound 0.316 µM, first compound 10 µM
[13] = second compound 1 µM, first compound 0.0316 µM
[14] = second compound 1 µM, first compound 0.1 µM
[15] = second compound 1 µM, first compound 0.316 µM
[16] = second compound 1 µM, first compound 1 µM
[17] = second compound 1 µM, first compound 3.16 µM
[18] = second compound 1 µM, first compound 10 µM
[19] = second compound 3.16 µM, first compound 0.0316 µM
[20] = second compound 3.16 µM, first compound 0.1 µM
[21] = second compound 3.16 µM, first compound 0.316 µM
[22] = second compound 3.16 µM, first compound 1 µM
[23] = second compound 3.16 µM, first compound 3.16 µM
[24] = second compound 3.16 µM, first compound 10 µM
[25] = second compound 10 µM, first compound 0.0316 µM
[26] = second compound 10 µM, first compound 0.1 µM
[27] = second compound 10 µM, first compound 0.316 µM
[28] = second compound 10 µM, first compound 1 µM
[29] = second compound 10 µM, first compound 3.16 µM
[30] = second compound 10 µM, first compound 10 µM

IC50 (second compound 0.1 µM): > 10 µM
IC50 (second compound 0.316 µM): > 10 µM
IC50 (second compound 1 µM): > 10 µM
IC50 (second compound 3.16 µM): > 10 µM
IC50 (second compound 10 µM): > 10 µM
SMILES: CC1(C)CCC(CN2CCN(c3ccc(C(=O)NS(=O)(=O)c4ccc(NCC5CCOCC5)c([N+](=O)[O-])c4)c(Oc4cnc5[nH]ccc5c4)c3)CC2)=C(c2ccc(Cl)cc2)C1 + Cc1ccccc1N=Nc1ccc(NC(=O)c2ccnn2C)c(C)c1
viability, T/C [1]: 117%
viability, T/C [2]: 106%
viability, T/C [3]: 100%
viability, T/C [4]: 101%
viability, T/C [5]: 97.3%
viability, T/C [6]: 65.1%
viability, T/C [7]: 106%
viability, T/C [8]: 106%
viability, T/C [9]: 113%
viability, T/C [10]: 109%
viability, T/C [11]: 95.9%
viability, T/C [12]: 65.8%
viability, T/C [13]: 103%
viability, T/C [14]: 105%
viability, T/C [15]: 108%
viability, T/C [16]: 94.8%
viability, T/C [17]: 97.2%
viability, T/C [18]: 75.4%
viability, T/C [19]: 94.7%
viability, T/C [20]: 95.9%
viability, T/C [21]: 102%
viability, T/C [22]: 90.3%
viability, T/C [23]: 89.5%
viability, T/C [24]: 69.3%
viability, T/C [25]: 66.1%
viability, T/C [26]: 65.3%
viability, T/C [27]: 65.9%
viability, T/C [28]: 68.9%
viability, T/C [29]: 67.2%
viability, T/C [30]: 64.3%

IC50 (second compound 0.1 µM): > 3 µM
IC50 (second compound 0.316 µM): > 3 µM
IC50 (second compound 1 µM): > 3 µM
IC50 (second compound 3.16 µM): > 3 µM
IC50 (second compound 10 µM): > 3 µM
SMILES: CCN(c1cc(-c2ccc(CN3CCOCC3)cc2)cc(C(=O)NCc2c(C)cc(C)[nH]c2=O)c1C)C1CCOCC1 + Cc1ccccc1N=Nc1ccc(NC(=O)c2ccnn2C)c(C)c1
viability, T/C (second compound 0.1 µM, first compound 0.00949 µM): 97.5%
viability, T/C (second compound 0.1 µM, first compound 0.03 µM): 103%
viability, T/C (second compound 0.1 µM, first compound 0.0949 µM): 94.1%
viability, T/C (second compound 0.1 µM, first compound 0.3 µM): 99.4%
viability, T/C (second compound 0.1 µM, first compound 0.949 µM): 94.4%
viability, T/C (second compound 0.1 µM, first compound 3 µM): 93%
viability, T/C (second compound 0.316 µM, first compound 0.00949 µM): 106%
viability, T/C (second compound 0.316 µM, first compound 0.03 µM): 107%
viability, T/C (second compound 0.316 µM, first compound 0.0949 µM): 104%
viability, T/C (second compound 0.316 µM, first compound 0.3 µM): 111%
viability, T/C (second compound 0.316 µM, first compound 0.949 µM): 108%
viability, T/C (second compound 0.316 µM, first compound 3 µM): 93.8%
viability, T/C (second compound 1 µM, first compound 0.00949 µM): 99.9%
viability, T/C (second compound 1 µM, first compound 0.03 µM): 106%
viability, T/C (second compound 1 µM, first compound 0.0949 µM): 104%
viability, T/C (second compound 1 µM, first compound 0.3 µM): 99.7%
viability, T/C (second compound 1 µM, first compound 0.949 µM): 102%
viability, T/C (second compound 1 µM, first compound 3 µM): 94.9%
viability, T/C (second compound 3.16 µM, first compound 0.00949 µM): 95.3%
viability, T/C (second compound 3.16 µM, first compound 0.03 µM): 88%
viability, T/C (second compound 3.16 µM, first compound 0.0949 µM): 98.6%
viability, T/C (second compound 3.16 µM, first compound 0.3 µM): 83.2%
viability, T/C (second compound 3.16 µM, first compound 0.949 µM): 89.8%
viability, T/C (second compound 3.16 µM, first compound 3 µM): 82.7%
viability, T/C (second compound 10 µM, first compound 0.00949 µM): 63.9%
viability, T/C (second compound 10 µM, first compound 0.03 µM): 67.5%
viability, T/C (second compound 10 µM, first compound 0.0949 µM): 74%
viability, T/C (second compound 10 µM, first compound 0.3 µM): 66.8%
viability, T/C (second compound 10 µM, first compound 0.949 µM): 64%
viability, T/C (second compound 10 µM, first compound 3 µM): 67%

IC50 (second compound 0.1 µM): 6.12 µM
IC50 (second compound 0.316 µM): 6.76 µM
IC50 (second compound 1 µM): 7.91 µM
IC50 (second compound 3.16 µM): > 10 µM
IC50 (second compound 10 µM): 5.67 µM
SMILES: COc1cc(Nc2ncc3c(n2)-c2ccc(Cl)cc2C(c2c(F)cccc2OC)=NC3)ccc1C(=O)O + Cc1ccccc1N=Nc1ccc(NC(=O)c2ccnn2C)c(C)c1
viability, T/C [1]: 88.2%
viability, T/C [2]: 91.4%
viability, T/C [3]: 78%
viability, T/C [4]: 77.5%
viability, T/C [5]: 71.9%
viability, T/C [6]: 35.4%
viability, T/C [7]: 85%
viability, T/C [8]: 81.7%
viability, T/C [9]: 91.8%
viability, T/C [10]: 79.4%
viability, T/C [11]: 67.9%
viability, T/C [12]: 40.9%
viability, T/C [13]: 86%
viability, T/C [14]: 75%
viability, T/C [15]: 92.9%
viability, T/C [16]: 82.3%
viability, T/C [17]: 73.2%
viability, T/C [18]: 44%
viability, T/C [19]: 71.5%
viability, T/C [20]: 83.1%
viability, T/C [21]: 85.1%
viability, T/C [22]: 73.8%
viability, T/C [23]: 66.7%
viability, T/C [24]: 50.1%
viability, T/C [25]: 68.4%
viability, T/C [26]: 64.2%
viability, T/C [27]: 68.3%
viability, T/C [28]: 63.9%
viability, T/C [29]: 62.5%
viability, T/C [30]: 38.2%

IC50 (second compound 0.1 µM): > 0.1 µM
IC50 (second compound 0.316 µM): > 0.1 µM
IC50 (second compound 1 µM): > 0.1 µM
IC50 (second compound 3.16 µM): > 0.1 µM
IC50 (second compound 10 µM): > 0.1 µM
SMILES: Cn1ncnc1C1c2n[nH]c(=O)c3cc(F)cc(c23)NC1c1ccc(F)cc1 (stereo not given) + Cc1ccccc1N=Nc1ccc(NC(=O)c2ccnn2C)c(C)c1
viability, T/C (second compound 0.1 µM, first compound 0.000316 µM): 109%
viability, T/C (second compound 0.1 µM, first compound 0.001 µM): 104%
viability, T/C (second compound 0.1 µM, first compound 0.00316 µM): 105%
viability, T/C (second compound 0.1 µM, first compound 0.01 µM): 105%
viability, T/C [1]: 100%
viability, T/C [2]: 99.5%
viability, T/C (second compound 0.316 µM, first compound 0.000316 µM): 121%
viability, T/C (second compound 0.316 µM, first compound 0.001 µM): 117%
viability, T/C (second compound 0.316 µM, first compound 0.00316 µM): 109%
viability, T/C (second compound 0.316 µM, first compound 0.01 µM): 105%
viability, T/C [7]: 106%
viability, T/C [8]: 107%
viability, T/C (second compound 1 µM, first compound 0.000316 µM): 108%
viability, T/C (second compound 1 µM, first compound 0.001 µM): 105%
viability, T/C (second compound 1 µM, first compound 0.00316 µM): 107%
viability, T/C (second compound 1 µM, first compound 0.01 µM): 104%
viability, T/C [13]: 107%
viability, T/C [14]: 99.7%
viability, T/C (second compound 3.16 µM, first compound 0.000316 µM): 94.4%
viability, T/C (second compound 3.16 µM, first compound 0.001 µM): 103%
viability, T/C (second compound 3.16 µM, first compound 0.00316 µM): 101%
viability, T/C (second compound 3.16 µM, first compound 0.01 µM): 93.9%
viability, T/C [19]: 99.9%
viability, T/C [20]: 99%
viability, T/C (second compound 10 µM, first compound 0.000316 µM): 73.7%
viability, T/C (second compound 10 µM, first compound 0.001 µM): 71.2%
viability, T/C (second compound 10 µM, first compound 0.00316 µM): 76.7%
viability, T/C (second compound 10 µM, first compound 0.01 µM): 81.7%
viability, T/C [25]: 69%
viability, T/C [26]: 72.2%

IC50 (second compound 0.1 µM): 0.965 µM
IC50 (second compound 0.316 µM): 1.47 µM
IC50 (second compound 1 µM): 1.52 µM
IC50 (second compound 3.16 µM): 0.862 µM
IC50 (second compound 10 µM): 0.105 µM
SMILES: NS(=O)(=O)OCC1CC(n2ccc3c(NC4CCc5ccccc54)ncnc32)CC1O (stereo not given) + Cc1ccccc1N=Nc1ccc(NC(=O)c2ccnn2C)c(C)c1
viability, T/C [1]: 104%
viability, T/C [2]: 82.5%
viability, T/C [3]: 78.1%
viability, T/C [4]: 45.4%
viability, T/C [5]: 34.6%
viability, T/C [6]: 30.2%
viability, T/C [7]: 108%
viability, T/C [8]: 78.2%
viability, T/C [9]: 71.2%
viability, T/C [10]: 59%
viability, T/C [11]: 36.5%
viability, T/C [12]: 33.7%
viability, T/C [13]: 97.8%
viability, T/C [14]: 74.8%
viability, T/C [15]: 83.1%
viability, T/C [16]: 57.7%
viability, T/C [17]: 35.3%
viability, T/C [18]: 34.7%
viability, T/C [19]: 94.9%
viability, T/C [20]: 71%
viability, T/C [21]: 67.9%
viability, T/C [22]: 45.5%
viability, T/C [23]: 36.5%
viability, T/C [24]: 28%
viability, T/C [25]: 59.4%
viability, T/C [26]: 47.9%
viability, T/C [27]: 43.8%
viability, T/C [28]: 37.5%
viability, T/C [29]: 30.2%
viability, T/C [30]: 25.8%

Source: PubChem BioAssay AID1919010 (Molecular Pharmacology Branch, DTP, NCI, 2023)
